Source: patent publication US20260139063A1, “PRE-MEDICATION AND IMPROVED TREATMENT REGIMEN” (MonTa Biosciences ApS, priority 2022, published 2026)
“Also recorded” adds a separate entry of the source.

Experiments:
[1] = tested on: plasma cytokines and chemokines; test: Clinical plasma biomarkers (cytokines and chemokines, MSD multiplex panels) after MBS8(1V270) with or without tocilizumab pre-medication; assay type: in vivo, human; conditions: patients
Method: FIG. 1: Detection of cytokines in plasma of subjects treated with 0.1 mg/kg MBS8(1V270) without (left panels) or with (right panels) pre-medication with tocilizumab (8 mg/kg). The measurements were done using GLP/GCP compliant multiplex panels purchased from Meso Scale Discovery (MSD) (Cytokine Panel 1 Human kit, Cytokine Panel 2 Human kit and Chemokine Panel 1 Human kit). Data treatment was performed using GraphPad Prism 9 software. Selected biomarkers were IL-6 (FIG. 1A), TNF-α (FIG. 1B), IL-1RA (FIG. 1C), IFN-γ (FIG. 1D), IP-10 (FIG. 1E), IL-1β (FIG. 1F), IL-8 (FIG. 1G) and IL-10 (FIG. 1H).
MBS8(1V270) was administered to all subjects at 0.1 mg/kg by IV infusion for a duration of 2 hours for four dosing occasions. Infusions were given one week apart on Days 1, 8, 15, and 22. Patients pretreated with tocilizumab were administered tocilizumab (8 mg/kg) prior to MBS8(1V270) infusion on the first dosing occasion (day 1) as a CRS preventive measure. The biomarkers were measured using GLP/GCP compliant and validated multiplex panels purchased from MSD in a quantitative procedure to measure these cytokines and chemokines.
The following plasma biomarkers were identified in this clinical study: safety-related (IL-1β, IL-8, IL-6, TNF-α and IL-10) and pharmacodynamics biomarkers (IFN-γ, MCP-1, IP-10, IL-1RA and IL-12p70) (FIG. 1A-1H). Blood samples were taken at pre-dose (0), 2 h, 8 h, and 24 h post-end of infusion and processed to plasma and frozen for later biomarker analyses.

[2] = tested on: subjects presenting with advanced solid tumors; test: Occurrence of Cytokine Release Syndrome (CRS), CTCAE version 5.0 grading, on all dosing occasions; assay type: in vivo, human
Method: FIG. 2: Table overview (FIG. 2A) of CRS occurrences in patients were assessed according to CTCAE grading, in patients treated with MBS8(1V270) on 4 occasions on day 1, 8, 15 and 22. Patient (pt) 1-3 were not pretreated with tocilizumab, whereas pt 4-7 were pretreated with tocilizumab prior to dosing with MBS8(1V270). All subjects received MBS8(1V270) at 0.1 mg/kg at each dosing occasion, and the clinical picture observed and rated according to the CTCAE grading shown in FIG. 2B. N/A=Not applicable. Table overview (FIG. 2B) of official CTCAE grading of patients with CRS symptoms as used for grading of CRS severeness for patients in FIG. 2A.CRS grading was done according to CTCAE Version 5.0.
MBS8(1V270) was administered to all subjects at 0.1 mg/kg by IV infusion for a duration of 2 hours for four dosing occasions. Infusions were given one week apart on Days 1, 8, 15, and 22. Patients pretreated with tocilizumab were administered tocilizumab (8 mg/kg) prior to MBS8(1V270) infusion on the first dosing occasion as a CRS preventive measure. […] Seven subjects presenting with advanced solid tumors were treated with MBS8(1V270) at 0.1 mg/kg once weekly on four dosing occasions as described in Example 1. […] Tocilizumab was administered as a one-hour intravenous infusion at 8 mg/kg just prior to MBS8(1V270) administration.
Occurrence of Cytokine Release Syndrome (CRS) was assessed on all dosing occasions. CRS was defined in accordance with Common Terminology Criteria for Adverse Events (CTCAE) version 5.0 as “a disorder characterized by fever, tachypnea, headache, tachycardia, hypotension, rash, and/or hypoxia caused by the release of cytokines”.

[3] = tocilizumab 8 mg/kg prior to MBS8(1V270) 0.1 mg/kg IV
[4] = tocilizumab premedicated patients (pt 4-7): tocilizumab 8 mg/kg IV day 1 just prior to MBS8(1V270) 0.1 mg/kg IV, days 1, 8, 15, 22

## tocilizumab: humanized monoclonal antibody against the interleukin-6 receptor (IL-6R), CAS: 375823-41-9
[1]; [3]
  IFN-γ plasma level after tocilizumab premedication compared with without: higher levels
  IL-6 plasma level after tocilizumab premedication compared with without: higher levels
  IP-10 plasma level after tocilizumab premedication compared with without: higher levels
  interference of tocilizumab with the MoA of MBS8(1V270): does not interfere
[1]; tocilizumab 8 mg/kg prior to MBS8(1V270) 0.1 mg/kg IV infusion on day 1, plasma pre-dose, 2 h, 8 h, 24 h post-end of infusion
  effect of tocilizumab pre-medication on cytokine and chemokine levels expected to play a role for the anti-tumor activity of MBS8(1V270): does not downregulate
[2]; patient 4-7 pretreated with tocilizumab 8 mg/kg before MBS8(1V270) 0.1 mg/kg
  CRS observed (clinical signs, CTCAE v5.0): No clinical signs of CRS; also recorded: no CRS observed at any dosing occasion
[2]; [4]
  CRS experienced, number of dosing occasions: 0 of the 14
  CRS experienced, percent of dosing occasions: 0%
